Assay results taken from patent US10526316B2, “Quinoxaline and pyridopyrazine derivatives as PI3Kβ inhibitors” (Janssen Pharmaceutica NV, priority 2015, dated 2020).
Like-named read-outs stand apart in the source and are kept apart here.

How the values were obtained:
[1] = test system: Akt phosphorylated at Ser473 in PC-3 cells; experiment: Cellular assay: phosphorylation of Akt at Ser473 in PC-3 cells (MSD ELISA); assay type: cell-based; settings: PC-3 cells, 60 min compound incubation, MSD ELISA, read-out: IC50 pAkt_S473
Procedure, shortened: (§1)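 Electrochemiluminescent sandwich ELISA read-out: phospho-specific capture (Ser473 or Thr308), Sulfo-tag anti-total Akt detection, signal proportional to phospho-Akt. Cells treated 60 min at 37° C with compound, DMSO 0.3%. IC50 fitted from five concentrations.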

[2] = test system: Akt phosphorylated at Thr308 in PC-3 cells; experiment: Cellular assay: phosphorylation of Akt at Thr308 in PC-3 cells (MSD ELISA); assay type: cell-based; settings: PC-3 cells, 60 min compound incubation, MSD ELISA, read-out: IC50 pAkt_Thr308
Procedure, shortened: as §1

[3] = target: T1, PI3Kδ (Homo sapiens, UniProt O00329); experiment: Enzyme binding assay (KINOMEscan, DiscoveRx); settings: PIK3Cδ_h
T1 construct: purchased DiscoveRx Corporation, San Diego (contract service, KINOMEscan)
T1 sequence (O00329 1-1044): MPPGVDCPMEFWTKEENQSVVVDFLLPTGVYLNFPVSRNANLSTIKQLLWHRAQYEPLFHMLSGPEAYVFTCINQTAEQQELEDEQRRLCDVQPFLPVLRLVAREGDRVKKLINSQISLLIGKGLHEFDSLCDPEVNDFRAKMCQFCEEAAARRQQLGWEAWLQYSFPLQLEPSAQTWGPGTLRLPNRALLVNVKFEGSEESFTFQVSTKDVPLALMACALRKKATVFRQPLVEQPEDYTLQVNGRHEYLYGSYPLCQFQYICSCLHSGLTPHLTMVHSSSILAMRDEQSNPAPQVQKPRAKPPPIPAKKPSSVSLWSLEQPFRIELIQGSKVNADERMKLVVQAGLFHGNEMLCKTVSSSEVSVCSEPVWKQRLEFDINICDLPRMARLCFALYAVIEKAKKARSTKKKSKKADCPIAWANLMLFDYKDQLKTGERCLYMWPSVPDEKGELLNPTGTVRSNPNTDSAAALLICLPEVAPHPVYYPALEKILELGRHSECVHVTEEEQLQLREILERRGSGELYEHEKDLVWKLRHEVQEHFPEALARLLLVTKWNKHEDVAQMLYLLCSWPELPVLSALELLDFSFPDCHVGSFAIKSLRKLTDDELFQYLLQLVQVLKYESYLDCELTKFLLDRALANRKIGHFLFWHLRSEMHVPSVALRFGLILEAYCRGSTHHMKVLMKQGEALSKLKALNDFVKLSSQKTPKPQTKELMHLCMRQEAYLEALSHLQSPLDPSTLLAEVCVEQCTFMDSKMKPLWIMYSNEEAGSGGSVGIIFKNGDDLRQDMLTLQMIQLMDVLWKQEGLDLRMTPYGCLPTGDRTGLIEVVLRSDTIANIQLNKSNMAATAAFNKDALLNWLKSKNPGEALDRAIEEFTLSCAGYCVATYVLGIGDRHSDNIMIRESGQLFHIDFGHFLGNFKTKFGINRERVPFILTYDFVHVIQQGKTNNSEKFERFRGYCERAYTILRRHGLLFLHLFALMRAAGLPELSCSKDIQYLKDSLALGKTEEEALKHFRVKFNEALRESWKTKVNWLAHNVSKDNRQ
Procedure, shortened: (§2)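 Kinase binding measured via KINOMEscan, reported as affinity.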

[4] = target: T2, kinase enzymes (Homo sapiens, UniProt P48736); experiment: Enzyme binding assay (KINOMEscan, DiscoveRx), further kinases of Table A; settings: PIK3Cγ_h
T2 construct: purchased DiscoveRx Corporation, San Diego (contract service, KINOMEscan)
T2 sequence (P48736 whole entry): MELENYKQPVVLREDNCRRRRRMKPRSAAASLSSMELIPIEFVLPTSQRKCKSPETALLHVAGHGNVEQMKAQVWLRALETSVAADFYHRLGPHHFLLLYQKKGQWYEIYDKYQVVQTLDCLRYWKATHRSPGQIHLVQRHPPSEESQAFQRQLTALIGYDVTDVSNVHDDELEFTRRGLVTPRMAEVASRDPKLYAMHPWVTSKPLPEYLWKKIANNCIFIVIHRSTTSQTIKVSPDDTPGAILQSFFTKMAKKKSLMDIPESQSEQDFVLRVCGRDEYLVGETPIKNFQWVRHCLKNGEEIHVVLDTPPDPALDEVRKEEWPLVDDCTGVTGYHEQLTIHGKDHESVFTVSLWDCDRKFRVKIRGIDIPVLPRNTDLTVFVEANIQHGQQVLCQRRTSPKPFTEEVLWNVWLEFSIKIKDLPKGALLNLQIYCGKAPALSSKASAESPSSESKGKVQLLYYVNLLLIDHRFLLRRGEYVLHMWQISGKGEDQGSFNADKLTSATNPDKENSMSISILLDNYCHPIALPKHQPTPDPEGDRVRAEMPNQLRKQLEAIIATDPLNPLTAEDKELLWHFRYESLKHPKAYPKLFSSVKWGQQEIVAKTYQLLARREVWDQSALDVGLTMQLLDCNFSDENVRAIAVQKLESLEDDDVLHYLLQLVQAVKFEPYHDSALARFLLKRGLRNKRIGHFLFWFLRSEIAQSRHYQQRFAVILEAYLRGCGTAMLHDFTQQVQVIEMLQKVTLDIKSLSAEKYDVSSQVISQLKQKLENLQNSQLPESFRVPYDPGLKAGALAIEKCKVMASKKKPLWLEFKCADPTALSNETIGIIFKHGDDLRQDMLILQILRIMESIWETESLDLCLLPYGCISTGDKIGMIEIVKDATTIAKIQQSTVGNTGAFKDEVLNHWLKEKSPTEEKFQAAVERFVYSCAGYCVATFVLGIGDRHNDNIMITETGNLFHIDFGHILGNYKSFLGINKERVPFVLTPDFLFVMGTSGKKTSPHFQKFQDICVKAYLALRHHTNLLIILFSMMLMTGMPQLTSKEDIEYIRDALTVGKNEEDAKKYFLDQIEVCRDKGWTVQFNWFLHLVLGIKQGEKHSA
Procedure, shortened: as §2

[5] = target: T3, kinase enzymes (Homo sapiens, UniProt P42345); experiment: as above; settings: MTOR_h
T3 construct: purchased DiscoveRx Corporation, San Diego (contract service, KINOMEscan)
Procedure, shortened: as §2

[6] = target: T4, kinase enzymes (Homo sapiens, UniProt P42336); experiment: as above; settings: PIK3Cα_h
T4 construct: purchased DiscoveRx Corporation, San Diego (contract service, KINOMEscan)
T4 sequence (P42336 whole entry): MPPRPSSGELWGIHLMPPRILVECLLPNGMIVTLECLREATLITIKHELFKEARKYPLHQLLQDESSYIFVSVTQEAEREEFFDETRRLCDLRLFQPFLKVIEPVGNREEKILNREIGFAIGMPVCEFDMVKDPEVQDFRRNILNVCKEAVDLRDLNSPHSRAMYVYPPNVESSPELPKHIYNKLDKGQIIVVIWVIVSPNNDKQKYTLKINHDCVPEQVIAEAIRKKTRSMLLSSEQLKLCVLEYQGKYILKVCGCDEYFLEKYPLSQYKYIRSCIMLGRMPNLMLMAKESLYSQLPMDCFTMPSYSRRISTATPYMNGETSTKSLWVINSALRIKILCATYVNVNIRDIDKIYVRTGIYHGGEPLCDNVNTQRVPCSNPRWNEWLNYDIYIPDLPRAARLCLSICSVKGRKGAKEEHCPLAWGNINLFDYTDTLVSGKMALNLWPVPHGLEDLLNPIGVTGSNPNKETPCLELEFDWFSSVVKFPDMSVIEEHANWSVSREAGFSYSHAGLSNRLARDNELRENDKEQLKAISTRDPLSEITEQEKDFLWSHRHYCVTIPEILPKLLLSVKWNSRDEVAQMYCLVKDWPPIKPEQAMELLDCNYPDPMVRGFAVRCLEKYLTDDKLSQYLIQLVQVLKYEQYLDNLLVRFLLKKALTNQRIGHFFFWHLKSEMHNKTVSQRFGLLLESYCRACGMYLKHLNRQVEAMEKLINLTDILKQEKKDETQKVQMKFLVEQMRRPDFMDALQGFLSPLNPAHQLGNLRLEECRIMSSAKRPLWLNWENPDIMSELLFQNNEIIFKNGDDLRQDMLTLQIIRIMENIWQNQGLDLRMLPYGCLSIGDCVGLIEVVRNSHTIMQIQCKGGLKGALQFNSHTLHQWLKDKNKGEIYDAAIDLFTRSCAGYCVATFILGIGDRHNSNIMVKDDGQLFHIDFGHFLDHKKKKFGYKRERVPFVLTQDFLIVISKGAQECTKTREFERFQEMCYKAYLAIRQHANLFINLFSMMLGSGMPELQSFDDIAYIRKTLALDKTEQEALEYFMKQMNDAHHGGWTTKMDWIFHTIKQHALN
Procedure, shortened: as §2

[7] = target: T5, PI3Kβ (Homo sapiens, UniProt P42338); experiment: Enzyme binding assay (KINOMEscan, DiscoveRx); settings: PIK3Cβ_h, read-out: Kd PIK3Cβ_h
T5 construct: purchased DiscoveRx Corporation, San Diego (contract service, KINOMEscan)
T5 sequence (P42338 whole entry): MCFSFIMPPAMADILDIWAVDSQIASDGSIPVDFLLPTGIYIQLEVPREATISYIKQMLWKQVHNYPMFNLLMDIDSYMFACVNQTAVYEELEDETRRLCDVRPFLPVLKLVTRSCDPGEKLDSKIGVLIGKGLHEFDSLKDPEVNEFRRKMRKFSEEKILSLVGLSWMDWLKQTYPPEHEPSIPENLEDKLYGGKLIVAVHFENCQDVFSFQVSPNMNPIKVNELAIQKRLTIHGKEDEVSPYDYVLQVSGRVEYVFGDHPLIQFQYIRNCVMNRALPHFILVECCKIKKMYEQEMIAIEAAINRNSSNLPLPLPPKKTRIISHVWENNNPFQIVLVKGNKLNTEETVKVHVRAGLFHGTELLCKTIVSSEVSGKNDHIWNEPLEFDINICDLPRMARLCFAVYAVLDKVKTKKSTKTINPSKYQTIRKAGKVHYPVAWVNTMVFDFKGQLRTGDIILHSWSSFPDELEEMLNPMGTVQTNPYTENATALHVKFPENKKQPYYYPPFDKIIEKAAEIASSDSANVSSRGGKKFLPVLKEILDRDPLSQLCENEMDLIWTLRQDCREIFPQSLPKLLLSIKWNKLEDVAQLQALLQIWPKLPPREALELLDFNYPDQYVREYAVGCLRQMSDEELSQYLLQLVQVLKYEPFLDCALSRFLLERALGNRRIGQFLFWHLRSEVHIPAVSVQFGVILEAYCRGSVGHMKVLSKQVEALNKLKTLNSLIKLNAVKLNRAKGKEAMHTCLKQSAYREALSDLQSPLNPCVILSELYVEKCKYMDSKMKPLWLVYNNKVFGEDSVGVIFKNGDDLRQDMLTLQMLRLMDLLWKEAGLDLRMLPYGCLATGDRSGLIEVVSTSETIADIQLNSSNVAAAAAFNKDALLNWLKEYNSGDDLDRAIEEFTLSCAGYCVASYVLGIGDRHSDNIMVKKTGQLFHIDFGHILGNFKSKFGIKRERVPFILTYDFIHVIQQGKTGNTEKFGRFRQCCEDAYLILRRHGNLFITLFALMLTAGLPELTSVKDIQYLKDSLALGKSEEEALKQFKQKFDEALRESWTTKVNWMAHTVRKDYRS
Procedure, shortened: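 Reported Kd (nM) reflects inhibitor binding to the kinase, as measured by KINOMEscan technology.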

Compound | melting point [°C] | IC50 ([1]; Homo sapiens, PC-3, 1 h) [nM] | IC50 ([2]; Homo sapiens, PC-3, 1 h) [nM] | Kd [3] [nM] | Kd [4] [µM] | Kd [5] [µM] | Kd [6] [µM] | Kd [7] [nM] | IC50 [1] [nM] | IC50 [2] [nM]
CC(Oc1cc(F)cc(F)c1)c1cc(C(=O)N2CCOCC2)cc2ncc(N3CCO[C@H](C)C3)nc12 (mixture of isomers) [Compound 56] | 55 | > 513 | 148 | 2630 | > 30.2 | > 30.2 | 6.61 | 13 |  | 
CN(C)C(=O)c1cc(C(CO)N(C)c2cccc(F)c2)c2nc(N3CCOCC3)cnc2c1 (stereo not shown) [Compound 301] | 315 | > 513 | 427 | 3240 | 1.51 | 15.1 | 5.37 | 43 |  | 
CCN1CCN(C(=O)c2cc(C3CCCN3c3cc(F)cc(F)c3)c3nc(N4CCOCC4)cnc3c2)CC1 (stereo not shown) [Compound 142] | 80 | 10 | 7 | 59 | 0.741 | > 30.2 | 0.209 | 0.5 |  | 
CON(C)C(=O)c1cc(C2CCCN2c2cc(F)cc(F)c2)c2nc(N3CCOCC3)cnc2c1 (stereo not shown) [Compound 51] | 80 | 3 | 3 | 39 | 0.339 | > 30.2 | 0.055 | 1 |  | 
O=C(NCCCO)c1cc(C2CCCN2c2cc(F)cc(F)c2)c2nc(N3CCOCC3)cnc2c1 (stereo not shown) [Compound 66] | 80 | 13 | 6 | 79 | 0.676 | 17 | 0.065 | 2 |  | 
COc1cc(F)cc(N2CCCC2c2cc(C(=O)N(C)C)cc3ncc(N4CCOCC4)nc23)c1 (stereo not shown) [Compound 32] | 80 | 12 | 17 | 85 | 0.646 | > 30.2 | 0.12 | 1 |  | 
O=C(NCCO)c1cc(NCc2cccc(F)c2C2CCNCC2)c2nc(N3CCOCC3)cnc2c1 [Compound 317] | 167 | > 513 | > 513 | 708 | 20.9 | > 30.2 | 6.17 | 13 |  | 
COc1cccc(N2CCCC2c2cc(C(=O)N(C)C)cc3ncc(N4CCOCC4)nc23)c1 (stereo not shown) [Compound 41] | 80 | 31 | 22 | 141 | 1.38 | > 30.2 | 0.389 | 1 |  | 
CC(Oc1cccc(F)c1)c1cc(C(=O)N(C)C)cc2ncc(N3CCOCC3)nc12 (stereo not shown) [Compound 68] | 49 | 257 | 148 | 589 | 15.1 | 22.4 | 3.16 | 3 |  | 
NCc1cc(C2CCCN2c2cc(F)cc(F)c2)c2nc(N3CCOCC3)cnc2c1 (stereo not shown) [Compound 96] | 80 | 25 | 20 | 83 | 0.302 | 17.4 | 0.363 | 0.4 |  | 
CC(Nc1cc(F)cc(F)c1)c1cc(C(=O)N2CCN(CC(F)(F)F)CC2)cc2ncc(N3CCOCC3)nc12 (stereo not shown) [Compound 171] | 125 | 155 | 102 | 575 | > 30.2 | > 30.2 | 2.19 | 3 |  | 
CC(Nc1ccc(F)c(F)c1)c1cc(C(=O)N2CCN3CCC[C@@H]3C2)cc2ncc(N3CCOCC3)nc12 (stereo partly shown) [Compound 347] | 170 |  | 63 | 407 | 28.8 | > 30.2 | 3.72 | 4 | 219 | 

The next lines start with the values.

melting point [°C] | IC50 ([1]; Homo sapiens, PC-3, 1 h) [nM] | IC50 ([2]; Homo sapiens, PC-3, 1 h) [nM] | Kd [3] [nM] | Kd [4] [µM] | Kd [5] [µM] | Kd [6] [µM] | Kd [7] [nM] | IC50 [1] [nM] | IC50 [2] [nM] | Compound
147 |  |  | 28800 | > 30.2 | > 30.2 | > 30.2 | 3310 | > 513 | > 513 | CC(Oc1ccc(F)c(F)c1)c1cc(C(=O)N2CCN3CCC[C@H]3C2)cc2ncc(N3CCOCC3)nc12 (single isomer, unassigned) [Compound 369b]
102 | 288 |  | 912 | 29.5 | > 30.2 | 3.02 | 10 |  | 138 | CC(Nc1ccc(F)c(F)c1)c1cc(C(=O)NCC(C)(C)O)cc2ncc(N3CCOCC3)nc12 (single isomer, unassigned) [Compound 348a]
110 |  |  | 603 | 21.9 | 32.4 | 2.82 | 17 | 155 | 98 | CC(Nc1cc(F)c(F)c(F)c1)c1cc(C(=O)NCC(C)(C)O)cc2ncc(N3CCOCC3)nc12 (single isomer, unassigned) [Compound 292a]
80 | > 513 | > 513 | 10700 | 25.1 | 15.5 | 3.63 | 1410 |  |  | CN(C)C(=O)c1cc(N2CCC2c2ccc(F)cc2)c2nc(N3CCOCC3)cnc2c1 (single isomer, unassigned) [Compound 397a]
107 |  |  | 5010 | 11 | > 30.2 | 12.6 | 20 | > 513 | 251 | CN[C@@H]1CCN(C(=O)c2cc(C(C)Nc3ccc(F)c(F)c3)c3nc(N4CCOCC4)cnc3c2)C1 (single isomer, unassigned) [Compound 371b]
